The source made the active and inactive calls. The calls are words filed in the database; no cut-off is given here.
Assays:
[1] = molecular target: Signal transducer and activator of transcription 3 (Homo sapiens) (UniProt P40763); assay: Inhibition of STAT3 phosphorylation in human A549 cells assessed as decrease in IL-6 stimulated STAT3 phosphorylation at 0.5 to 3 uM preincubated for 1 hr followed by IL-6 stimulation and measured after 1 hrs by Western blot analysis; assay type: cell-based; conditions: dose 0.5-3 µM, time 2.0 hrs
Signal transducer and activator of transcription 3 (Homo sapiens), sequence (P40763 whole entry): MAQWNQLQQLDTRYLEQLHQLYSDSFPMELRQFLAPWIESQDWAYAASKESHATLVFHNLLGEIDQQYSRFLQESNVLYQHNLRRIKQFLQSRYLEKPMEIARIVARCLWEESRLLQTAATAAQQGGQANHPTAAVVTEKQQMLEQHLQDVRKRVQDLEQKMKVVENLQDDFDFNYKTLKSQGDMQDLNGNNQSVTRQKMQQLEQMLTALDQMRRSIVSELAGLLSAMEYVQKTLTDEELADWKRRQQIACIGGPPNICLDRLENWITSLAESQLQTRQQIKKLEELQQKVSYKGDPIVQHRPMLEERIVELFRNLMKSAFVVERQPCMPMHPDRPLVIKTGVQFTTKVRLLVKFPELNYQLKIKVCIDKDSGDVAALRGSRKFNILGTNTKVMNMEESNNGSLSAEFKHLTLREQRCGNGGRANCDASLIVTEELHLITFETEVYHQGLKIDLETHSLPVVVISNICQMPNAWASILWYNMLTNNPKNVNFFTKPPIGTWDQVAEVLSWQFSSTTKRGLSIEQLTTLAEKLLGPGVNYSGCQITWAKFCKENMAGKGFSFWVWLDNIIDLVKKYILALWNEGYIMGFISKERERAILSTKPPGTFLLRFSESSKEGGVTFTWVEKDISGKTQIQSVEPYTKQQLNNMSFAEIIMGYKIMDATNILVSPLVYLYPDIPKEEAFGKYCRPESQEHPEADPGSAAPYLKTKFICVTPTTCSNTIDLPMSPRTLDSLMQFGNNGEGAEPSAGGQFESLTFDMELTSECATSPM

MDA-MB-231 = assay: Antiproliferative activity against human MDA-MB-231 cells assessed as inhibition of cell growth measured after 72 hrs by WST-8 method; assay type: functional, cell-based; conditions: MDA-MB-231, 72 h
A549 [2] = assay: Antiproliferative activity against human A549 cells assessed as inhibition of cell growth measured after 72 hrs by WST-8 method; assay type: functional, cell-based; conditions: A549, 72 h
A549 [3] = assay: Antiproliferative activity against human A549 cells measured after 24 hrs by MTT assay; assay type: functional, cell-based; conditions: A549, 24 h
[4] = molecular target: Signal transducer and activator of transcription 3 (Homo sapiens) (UniProt P40763); assay: Inhibition of IL-6 stimulated STAT3 phosphorylation in human A549 cells at <0.1 uM preincubated for 1 hr followed by IL-6 stimulation and measured after 1 hrs by Western blot analysis relative to control; assay type: cell-based; conditions: time 2.0 hrs
[5] = molecular target: Signal transducer and activator of transcription 3 (Homo sapiens) (UniProt P40763); assay: Inhibition of IL-6 stimulated STAT3 phosphorylation in human A549 cells at 10 uM preincubated for 1 hr followed by IL-6 stimulation and measured after 1 hrs by Western blot analysis; assay type: cell-based; conditions: time 2.0 hrs

Row | inhibition [1] | IC50 (MDA-MB-231) [nM] | IC50 (A549 [2]) [nM] | IC50 (A549 [3]) [nM] | inhibition [4] [%] | inhibition [5] | Compound
1 | Active | 2400 | 390 |  | 100 |  | C[C@H](O)c1cc2c(o1)-c1cccc(O)c1C(=O)C2=O
2 |  | 350 | 160 |  |  |  | C[C@H](O)c1cc2c(o1)C(=O)c1cccc(O)c1C2=O
3 |  | 1400 | 630 |  |  | inactive | CC1(C)CCC2=C(O1)c1cccc(O)c1C(=O)C2=O
4 | Active | 1400 | 620 |  | 100 |  | CC(=O)c1cc2c(o1)-c1cccc(O)c1C(=O)C2=O

Second part, the compound before the results:

Row | Compound | inhibition [1] | IC50 (MDA-MB-231) [nM] | IC50 (A549 [2]) [nM] | IC50 (A549 [3]) [nM] | inhibition [4] [%] | inhibition [5]
5 | CC(O)c1cc2c(o1)C(=O)c1cccc(S(=O)(=O)N(C)C)c1C2=O (configuration not stated) | Active | 770 | 1200 |  |  | 
6 | O=C1C(Nc2ccccc2N2CCNCC2)=CC2=NS(=O)(=O)c3cccc1c32 |  |  |  | ≤ 4660 |  | 
7 | CC(=O)c1cc2c(o1)C(=O)c1ccc(S(N)(=O)=O)cc1C2=O |  | 110 | 140 |  |  | 
8 | CC(=O)c1cc2c(o1)-c1ccccc1C(=O)C2=O | Active | 1500 | 1700 |  |  | 
9 | CC(O)c1cc2c(o1)C(=O)c1ccc(S(N)(=O)=O)cc1C2=O (configuration not stated) |  | 310 | 490 |  |  | 
10 | CC(O)c1cc2c(o1)C(=O)c1cccc3c1C2=NS3(=O)=O (configuration not stated) | Active | 49 | 34 |  | 100 | 
11 | CC(=O)c1cc2c(o1)C(=O)c1cccc3c1C2=NS3(=O)=O | Active | 89 | 54 |  | 100 | 

Source: ChEMBL document CHEMBL5321259, “Synthesis and structure-activity relationship studies of naphthoquinones as STAT3 inhibitors” (Bioorg Med Chem, 2023)
